Measurements published in ChEMBL document CHEMBL4715739, “7,7-Dimethylaporphine and Other Alkaloids from the Bark of Guatteria friesiana” (J Nat Prod, 2016).

What was measured:
HL-60 = assay: Cytotoxicity against human HL-60 cells assessed as reduction in cell viability incubated for 72 hrs by Alamar blue assay; format: functional, cell-based; conditions: HL-60, 72 h
K562 = assay: Cytotoxicity against human K562 cells assessed as reduction in cell viability incubated for 72 hrs by Alamar blue assay; format: functional, cell-based; conditions: K562, 72 h
HepG2 = assay: Cytotoxicity against human HepG2 cells assessed as reduction in cell viability incubated for 72 hrs by Alamar blue assay; format: functional, cell-based; conditions: HepG2, 72 h
B16-F10 = assay: Cytotoxicity against mouse B16-F10 cells assessed as reduction in cell viability incubated for 72 hrs by Alamar blue assay; format: functional, cell-based; conditions: B16-F10, 72 h
[1] = Cytotoxicity against human PBMC cells assessed as reduction in cell viability incubated for 72 hrs by Alamar blue assay; format: cell-based

COc1cccc2c1C(=O)c1c(O)c3c(c(O)c1C2=O)C[C@@](O)(C(=O)CO)C[C@@H]3O[C@H]1C[C@H](N)[C@H](O)[C@H](C)O1 [DOXORUBICIN]
IC50 (HL-60): 0.8 µM
IC50 (K562): 0.7 µM
IC50 (HepG2): 0.2 µM
IC50 (B16-F10): 2.3 µM

O=C1c2ccccc2-c2c3c(cc4ccnc1c24)OCO3 [LIRIODENINE]
IC50 (HL-60): 5.5 µM
IC50 [1]: 34.8 µM
IC50 (K562): 5 µM
IC50 (HepG2): 8.3 µM
IC50 (B16-F10): > 10 µM
